Test results published in publication PMC10380841, “Synthesis, Characterization and Cytotoxic Evaluation of New Pyrrolo[1,2-b]pyridazines Obtained via Mesoionic Oxazolo-Pyridazinones” (International Journal of Molecular Sciences, 2023).
Like-named read-outs stand apart in the source and are kept apart here.

Key:
[1] = test system: Triticum aestivum L.; assay: Triticum test, phytotoxicity (main root length); assay type: in vivo; conditions: 10–1000 µM
Method: Phytobiological testing (Triticum test) was performed by the Constantinescu method which consists in determining the maximum active dilution of a compound. Depending on the duration of action, it can influence root elongation and the […] film. […] Embryonic wheat roots were obtained by germinating homogeneous wheat caryopses in Linhart pots. Then the caryopses with a main root length of 1 cm were placed in the test solutions. For the determination of the action of each compound, five dilutions in the concentration range of 10–1000 µM were obtained and 11 caryopses were placed in them. Petri dishes containing 15 mL of diluted solution were kept under constant conditions of temperature (25 °C), and humidity (60%), in the absence of light. […] The results were expressed in comparison with a 1% DMSO control.
Statistical analyses were performed using the computing and programming environment R, R, v. 4.2.1 [68], under Rstudio, v. 2022.07.2+576 “Spotted Wakerobin” for Windows (RStudio, PBC, Boston, 2022), both for the Triticum and Artemia tests. It used a parametric mixed-effects model (R package “lme4”) and a robust mixed-effects model (R package “robustlmm”), in which root length measurements (Triticum) from all three days were used as the dependent variable, whereas compound, concentration and time were treated as fixed effects, with time (day of measurement) also treated as a random effect. Assessing statistical significance for mixed-effects statistical models is controversial and complex, but as a pragmatic way of working, we have estimated p-values using the Kenward–Rogers approximation (R package “sjPlot”). A variety of R base functions and R packages were used to diagnose the regression models (“car” [72], “MASS” [73], and “gvlma” [74]). Mixed boxplot–dotplot plots were generated using the “ggplot2” package.
The “drc” R package was used to estimate IC50 values for the Triticum bioassay by nonlinear modeling. For Triticum, the relationship between root length and concentration was modeled using Weibull functions with 2, 3, or 4 parameters, depending on the data distribution, the models being selected from a range of several models with different functions and parameters, based on the Akaike’s information criterion (AIC).

[2] = test system: SK-OV-3 ovary adenocarcinoma cells; assay: MTS cytotoxicity assay, SK-OV-3; assay type: cell-based; conditions: Homo sapiens; SK-OV-3, 400 μM, 24 h; read-out: cell viability
[3] = test system: LoVo colon adenocarcinoma cells; assay: MTS cytotoxicity assay, LoVo; assay type: cell-based, human; conditions: Homo sapiens
Method: Therefore, the precursor acids 2a–c and corresponding pyrrolo[1,2-b]pyridazines 5a–c,f were tested for their potential cytotoxic activity. During the assays, increasing concentrations of the compounds, ranging from […], were added for 24 h or 48 h to cancer LoVo, SK-OV-3, MCF-7, and the reference HUVEC cells, previously cultured for 24 h in 96-well flat bottom plates. […] Then, MTS reagent was added, and cells were incubated for 4 h at 37 °C in a 5% CO2 humidified atmosphere. The absorbance values were spectrophotometrically read to a Dynex ELISA reader at λ = […].
For the evaluation of the in vitro potential anti-proliferative effects of treatments with the new compounds under study against solid tumor-derived cells, several compound-mediated cytotoxicity assays were performed on three adherent tumor standardized cell lines, and normal human endothelial cells, used as control: the MCF-7 human breast adenocarcinoma and SK-OV-3 human ovary adenocarcinoma cell lines were provided from European Collection of Authenticated Cell Cultures (ECACC), while LoVo, human colorectal adenocarcinoma cell line, and HUVEC human umbilical vein endothelial cells were purchased from American Type Culture Collection (ATCC).
Adherent cells were cultivated in DMEM/F12 medium added with 2 mM L-glutamine and 10% fetal bovine serum, 100 units/mL penicillin, 100 µg/mL streptomycin (Sigma Aldrich, St. Louis, MO, USA) and incubated at 37 °C in 5% CO2 humidified atmosphere. The stock solutions for cell treatments were prepared by dissolving the synthesized compounds in a minimum amount of DMSO. Working dilutions were prepared from the stock solutions in culture medium before each treatment assay. After 24 h, when cell cultures achieved around 70% confluence, treatments were applied for various periods of time with different concentrations of synthesized compounds or oncolytic drugs, used as positive controls.
Therefore, cell cultures treated with the new compounds or oncolytic drugs for 24 h or 48 h were further subjected to a colorimetric cell viability method, the MTS assay. The absorbance of probes was read, data were calculated, and percentages of cell viability were assessed.
The evaluation of the compound-induced cytotoxicity was made using the CellTiter 96 Aqueous One Solution Cell Proliferation Assay (Promega, Madison, WI, USA), a reagent that contains both MTS (3-(4,5-dimethylthiazol-2-yl)-5-(3-carboxymethoxyphenyl)-2-(4-sulfophenyl)-2H-tetrazolium, inner salt) and PES ([…], a cationic dye with high chemical stability that binds to MTS and forms a stable solution).
Briefly, 1.5 × 10^4 cancer or normal cells were cultured in 100 µL/well for 24 h. After the culture supernatants were discarded, cells were treated for additional 24 h or 48 h with increasing concentrations of new compounds or oncolytic drugs. Following the specific treatments, in each well a volume of 20 µL of coloring mixture reagent of MTS and PES was added, and then the plates were incubated with mild agitation every 20 min for 4 h at 37 °C. The color developed during incubation was spectrophotometrically quantified at λ = 492 nm using a Dynex ELISA reader (DYNEX Technologies—MRS, Chantilly, VA, USA).
Data were expressed as percentages of cell viability of the treated cells, and were calculated and compared to the untreated cells (considered 100% viable), using the formula:Cell viability (%) = (T − B)/(U − B) × 100 where T = absorbance of treated cells, U = absorbance of untreated cells, and B = absorbance of culture medium (blank), for λ = 492 nm.
The cell viability data were expressed as the mean values ± standard deviations (SD) of three different experiments (n = 3). […] Moreover, a parallel experiment was performed in the absence of cells, with all the concentrations of the compounds being tested for their potential interference with MTS reagents; then, their absorbance values were extracted during calculations.

[4] = test system: LoVo colon adenocarcinoma cells; assay: MTS cytotoxicity assay, LoVo; assay type: cell-based; conditions: Homo sapiens, 400 μM, read-out: cell viability
[5] = test system: Daphnia magna Straus; assay: Daphnia magna toxicity assay; assay type: in vivo; conditions: 48 h
Method: (§1) Young organisms of Daphnia magna were selected according to their size from a parthenogenetic culture maintained in an artificial medium for 24 h before the bioassay. The determination was conducted in tissue culture plates with 12 wells (Greiner Bio-One, Monroe, NC, USA), with 10 organisms in each well, and a final volume of 3 mL per sample [65, 66]. As a negative control, DMSO was used at a concentration of 1%. All compounds were tested at six different concentration levels, ranging from 12.5 to 500 μg/mL. All assessments were performed in duplicate.

[6] = Daphnia magna toxicity assay; assay type: in vivo; conditions: Daphnia magna, in vivo; 48 h
Method: as §1

## CCOC(=O)c1cc(CC)n2nc(-c3ccc(F)cc3)ccc12 [Compound 5e, Ethyl 7-ethyl-2-(4-fluorophenyl)pyrrolo[1,2-b]pyridazine-5-carboxylate]
[1]; vs 1% DMSO control
  effect on root length: concentration-dependent inhibitory effect
[1]; Triticum aestivum, 72 h, Triticum root length, measured over three days
  IC50: 607 µM
[2]
  viability at 400 µM: 87.5%
[3]; 24 h, read-out: IC50 LoVo 24 h
  IC50: ≥ 400 µM
[3]; 48 h, read-out: IC50 LoVo 48 h
  IC50: ≥ 400 µM
[4]; 24 h
  viability at 400 µM: 82.2%
[4]; 48 h
  viability at 400 µM: 67.4%
[5]
  toxicity on Daphnia magna: moderate toxicity
[6]
  LC50 at 48 h: 675 µM
